The values that follow come from patent publication US20250361230A1, “LATS Inhibitors and Uses Thereof” (The USA, as Represented by the Secretary, Dept. of Heath …, priority 2022, published 2025).

The structures appear in SMILES notation.

The assay deals with T1, LATS1 (Homo sapiens, UniProt O95835).
T1 sequence (O95835 1-1130): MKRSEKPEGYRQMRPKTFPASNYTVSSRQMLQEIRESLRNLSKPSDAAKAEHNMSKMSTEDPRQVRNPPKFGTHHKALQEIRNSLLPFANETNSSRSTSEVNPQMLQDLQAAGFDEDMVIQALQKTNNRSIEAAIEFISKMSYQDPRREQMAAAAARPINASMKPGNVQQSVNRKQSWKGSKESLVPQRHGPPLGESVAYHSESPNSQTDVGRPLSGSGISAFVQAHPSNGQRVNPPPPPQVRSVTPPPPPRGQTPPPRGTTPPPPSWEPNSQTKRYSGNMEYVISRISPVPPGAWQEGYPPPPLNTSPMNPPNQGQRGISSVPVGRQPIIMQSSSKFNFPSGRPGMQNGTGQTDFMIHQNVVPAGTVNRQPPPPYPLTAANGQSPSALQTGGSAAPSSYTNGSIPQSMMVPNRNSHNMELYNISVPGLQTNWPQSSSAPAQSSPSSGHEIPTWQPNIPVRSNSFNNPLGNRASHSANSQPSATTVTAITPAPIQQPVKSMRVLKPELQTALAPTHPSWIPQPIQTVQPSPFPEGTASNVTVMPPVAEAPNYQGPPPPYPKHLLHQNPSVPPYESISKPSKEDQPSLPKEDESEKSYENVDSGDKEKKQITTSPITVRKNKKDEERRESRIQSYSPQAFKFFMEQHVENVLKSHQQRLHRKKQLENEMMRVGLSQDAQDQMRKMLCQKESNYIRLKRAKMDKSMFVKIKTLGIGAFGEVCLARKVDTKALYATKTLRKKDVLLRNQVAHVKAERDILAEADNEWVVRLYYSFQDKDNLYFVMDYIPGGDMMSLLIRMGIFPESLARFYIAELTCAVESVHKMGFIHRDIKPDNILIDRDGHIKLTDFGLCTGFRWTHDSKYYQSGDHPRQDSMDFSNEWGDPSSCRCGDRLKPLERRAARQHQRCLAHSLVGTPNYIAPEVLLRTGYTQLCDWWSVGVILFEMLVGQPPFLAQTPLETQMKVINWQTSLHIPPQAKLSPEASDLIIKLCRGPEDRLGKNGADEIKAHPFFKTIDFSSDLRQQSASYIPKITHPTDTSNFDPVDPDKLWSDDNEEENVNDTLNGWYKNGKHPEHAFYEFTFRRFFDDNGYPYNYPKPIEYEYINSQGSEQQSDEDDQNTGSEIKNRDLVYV
Description: RBC HotSpot kinase assay (33P-ATP, P81 filter-binding), LATS1. The note with it: biochemical kinase inhibition; read-out: LATS1 IC50. Format: biochemical. The procedure, abridged: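 Compounds were run as single 10-point titrations to give IC50 values in nM. Each kinase was mixed with substrate and cofactors in 20 mM Hepes pH 7.5 reaction buffer with 1% DMSO, then exposed to compound for 20 min. 33P-ATP was added for a 2 h room-temperature reaction, with activity measured by P81 filter binding.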

On to `Cc1cc(-c2ccnc3[nH]cc(C#N)c23)ccc1[C@@]1(O)[C@H](C)CN(C2CCS(=O)(=O)CC2)C[C@@H]1C` [Compound 2003, 4-(4-((3S,4s,5R)-1-(1,1-dioxidotetrahydro-2H-thiopyran-4-yl)-4-hydroxy-3,5-dimethylpiperidin-4-yl)-3-methylphenyl)-1H-pyrrolo[2,3-b]pyridine-3-carbonitrile], for which the IC50 amounted to 5.6 nM.
